Assay results taken from ChEMBL document CHEMBL1201862, “PubChem BioAssay data set” (2004).
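Step 1: Grow cells in 96-well plates. Step 2: Expose to compound for 48 hours at 5 concentrations. Step 3: Interpolate endpoints linearly; if unreached, use highest concentration. GI50 = concentration required for 50% inhibition of growth.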 The source made the active and inactive calls. No stated cut-off is given here; in the data, active = GI50 up to about 1.1 µM and inactive = higher.

What was measured:
Experiment in all cases: DTP human tumour cell line panel, 48 h
786-0 = system: 786-0
A549 = system: A549
EKVX = system: EKVX
HCT-116 = system: HCT-116
Hs-578T = system: Hs-578T
K562 = system: K562
KM12 = system: KM12
MDA-MB-435 = system: MDA-MB-435
Malme-3M = system: Malme-3M
NCI-H460 = system: NCI-H460
OVCAR-4 = system: OVCAR-4
SF-268 = system: SF-268
SF-295 = system: SF-295
SF-539 = system: SF-539
SN12C = system: SN12C
SNB-19 = system: SNB-19
T47D = system: T47D
UACC-62 = system: UACC-62
UO-31 = system: UO-31
RPMI-8226 = system: RPMI-8226

Measured: GI50

O=C(Cc1ccccc1)N/N=C1\C(=O)Nc2ccccc21
inactive: 786-0 80.5 µM | A549 > 100 µM | EKVX 72.1 µM | HCT-116 > 100 µM | Hs-578T 65.3 µM | K562 > 100 µM | KM12 > 100 µM | MDA-MB-435 > 100 µM | Malme-3M > 100 µM | NCI-H460 > 100 µM | OVCAR-4 > 100 µM | SF-268 31.6 µM | SF-295 25.8 µM | SF-539 23.1 µM | SN12C 48.5 µM | SNB-19 > 100 µM | T47D 63.2 µM | UACC-62 > 100 µM | UO-31 48.2 µM

O=C(CN1C(=O)CC(c2ccccc2)(c2ccccc2)C1=O)N1CCN(CCO)CC1
inactive: 786-0 > 100 µM | A549 > 100 µM | EKVX > 100 µM | HCT-116 > 100 µM | Hs-578T > 100 µM | K562 > 100 µM | KM12 > 100 µM | MDA-MB-435 > 100 µM | OVCAR-4 > 100 µM | RPMI-8226 > 100 µM | SF-268 > 100 µM | SF-295 > 100 µM | SF-539 > 100 µM | SN12C > 100 µM | SNB-19 > 100 µM | T47D > 100 µM | UACC-62 > 100 µM | UO-31 > 100 µM

Fc1cc2nc3n(c2cc1F)C(c1c(F)cccc1F)SC3 (stereo not drawn)
inactive: 786-0 24.3 µM | A549 37.1 µM | HCT-116 21.8 µM | Hs-578T 50.1 µM | KM12 41.1 µM | MDA-MB-435 35.3 µM | Malme-3M 50.8 µM | NCI-H460 36.8 µM | OVCAR-4 42.1 µM | RPMI-8226 34.5 µM | SF-268 74 µM | SF-295 37.2 µM | SF-539 39.4 µM | SN12C 51.9 µM | SNB-19 > 100 µM | T47D 37 µM | UACC-62 38.8 µM | UO-31 37.8 µM

N#C[C@H](c1nc2ccccc2s1)c1nc2ccccc2nc1Cl
inactive: 786-0 > 100 µM | A549 32.4 µM | EKVX > 100 µM | HCT-116 > 100 µM | Hs-578T 94.6 µM | KM12 80.9 µM | MDA-MB-435 > 100 µM | Malme-3M > 100 µM | NCI-H460 18.6 µM | OVCAR-4 16.3 µM | RPMI-8226 > 100 µM | SF-295 17.1 µM | SF-539 37 µM | SN12C > 100 µM | SNB-19 > 100 µM | T47D > 100 µM | UACC-62 14.3 µM | UO-31 23.3 µM

CC(C)C(/C=C/c1ccc(Cl)cc1)=N\NC(=S)NN
inactive: 786-0 20.5 µM | A549 31.6 µM | HCT-116 2.99 µM | Hs-578T 14.6 µM | K562 3.55 µM | KM12 23.8 µM | MDA-MB-435 10.7 µM | Malme-3M 25.2 µM | NCI-H460 5.26 µM | RPMI-8226 11.7 µM | SF-268 7.57 µM | SF-295 22.1 µM | SF-539 25.1 µM | SN12C 14.1 µM | SNB-19 76.4 µM | T47D 6.59 µM | UACC-62 4.51 µM | UO-31 17.9 µM

CC(C)(NO)/C(=N\O)c1ccco1
inactive: 786-0 > 100 µM | A549 > 100 µM | EKVX > 100 µM | HCT-116 > 100 µM | Hs-578T 24 µM | KM12 > 100 µM | MDA-MB-435 > 100 µM | Malme-3M > 100 µM | NCI-H460 > 100 µM | OVCAR-4 > 100 µM | RPMI-8226 > 100 µM | SF-268 > 100 µM | SF-295 > 100 µM | SF-539 > 100 µM | SN12C > 100 µM | SNB-19 > 100 µM | T47D > 100 µM | UACC-62 > 100 µM | UO-31 > 100 µM

COc1ccc(/C(C)=N/OC(=O)c2c(-c3ccccc3Cl)noc2C)cc1CN1CCOCC1
inactive: 786-0 24.5 µM | A549 19.1 µM | HCT-116 18.2 µM | Hs-578T 28.9 µM | K562 28.2 µM | KM12 22.4 µM | MDA-MB-435 20.8 µM | Malme-3M 21.2 µM | NCI-H460 29 µM | OVCAR-4 29.4 µM | RPMI-8226 26.1 µM | SF-268 30.8 µM | SF-295 11.5 µM | SF-539 24.8 µM | SN12C 18.7 µM | SNB-19 16.2 µM | T47D 16.4 µM | UACC-62 15 µM | UO-31 3.75 µM

CC(=O)Oc1ccc2cc(-c3ccc(OC(C)=O)c(OC(C)=O)c3)c(=O)oc2c1
inactive: 786-0 > 100 µM | A549 73.6 µM | EKVX 30.4 µM | HCT-116 60.3 µM | Hs-578T 54.2 µM | K562 49.8 µM | KM12 32.8 µM | MDA-MB-435 61.5 µM | Malme-3M > 100 µM | NCI-H460 85.9 µM | OVCAR-4 27.1 µM | RPMI-8226 39.3 µM | SF-268 63.2 µM | SF-295 52.8 µM | SF-539 > 100 µM | SN12C > 100 µM | SNB-19 > 100 µM | T47D 24.5 µM | UO-31 56 µM
